The supplement of paper PMC4862054
Several values for one entry are separate records, joined by “and”; a condition that tells them apart may be missing. Identical values can stand only once.

Experiments:
Hs578T [1] = assay: normalised viability (% of control), CellTiter-Blue; higher = more viable cells (about 100 = DMSO control); conditions: incubation time: 72 h
In short: (§1)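 Breast cancer cell lines were treated for 72 h in 384-well format and measured by CellTiter-Blue fluorescence at 560/590 nm. Results were normalised per plate to vehicle (100) and a positive kill control (0). The entry is normalised viability at a single listed concentration of the series.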

CAL-51 [2] = assay: as above; conditions: incubation time: 72 h
In short: as §1

MFM-223 [3] = assay: as above; conditions: incubation time: 72 h
In short: as §1

HCC1143 [4] = assay: as above; conditions: incubation time: 72 h
In short: as §1

MDA-MB-231 [5] = assay: as above; conditions: incubation time: 72 h
In short: as §1

MDA-MB-436 [6] = assay: as above; conditions: incubation time: 72 h
In short: as §1

MDA-MB-468 [7] = assay: as above; conditions: incubation time: 72 h
In short: as §1

DU-4475 [8] = assay: as above; conditions: incubation time: 72 h
In short: as §1

HCC1937 [9] = assay: as above; conditions: incubation time: 72 h
In short: as §1

Hs578T [10] = assay: normalised viability (% of control), CellTiter-Blue; higher = more viable cells (100 = DMSO, 0 = benzethonium chloride kill control); conditions: 0.1 nM; incubation time: 72 h
Procedure: (§2)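 DSRT, CellTiter-Blue viability, 72 h incubation. Signal is normalised to DMSO and benzethonium chloride controls. Value is the normalised response at dose 1.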

CAL-51 [11] = assay: as above; conditions: 0.1 nM; incubation time: 72 h
Procedure: as §2

BT-549 = assay: as above; conditions: 0.1 nM; incubation time: 72 h
Procedure: as §2

CAL-85-1 = assay: as above; conditions: 0.1 nM; incubation time: 72 h
Procedure: as §2

HCC1599 = assay: as above; conditions: 0.1 nM; incubation time: 72 h
Procedure: as §2

MFM-223 [12] = assay: as above; conditions: 0.1 nM; incubation time: 72 h
Procedure: as §2

BT-474 = assay: as above; conditions: 0.1 nM; incubation time: 72 h
Procedure: as §2

MDA-MB-453 = assay: as above; conditions: 0.1 nM; incubation time: 72 h
Procedure: as §2

CAL-120 = assay: as above; conditions: 0.1 nM; incubation time: 72 h
Procedure: as §2

HCC1143 [13] = assay: as above; conditions: 0.1 nM; incubation time: 72 h
Procedure: as §2

CAL-148 = assay: as above; conditions: 0.1 nM; incubation time: 72 h
Procedure: as §2

MDA-MB-231 [14] = assay: as above; conditions: 0.1 nM; incubation time: 72 h
Procedure: as §2

MDA-MB-436 [15] = assay: as above; conditions: 0.1 nM; incubation time: 72 h
Procedure: as §2

DU-4475 [16] = assay: as above; conditions: 0.1 nM; incubation time: 72 h
Procedure: as §2

SK-BR-3 = assay: as above; conditions: 0.1 nM; incubation time: 72 h
Procedure: as §2

HCC1937 [17] = assay: as above; conditions: 0.1 nM; incubation time: 72 h
Procedure: as §2

HDQ-P1 = assay: as above; conditions: 0.1 nM; incubation time: 72 h
Procedure: as §2

MDA-MB-468 [18] = assay: as above; conditions: 0.1 nM; incubation time: 72 h
Procedure: as §2

CNC(=O)c1cc(Oc2ccc(NC(=O)Nc3ccc(Cl)c(C(F)(F)F)c3)cc2)ccn1 [Sorafenib]
Conditions	normalised viability
CAL-51 [2], 0.3 nM	112% and 107%
CAL-51 [2], 3 nM	108% and 99.3%
CAL-51 [2], 10 nM	98.3% and 96.8%
DU-4475 [8], 0.3 nM	94.3% and 109%
DU-4475 [8], 3 nM	101% and 95.7%
HCC1143 [4], 1 nM	99% and 84.3%
HCC1143 [4], 100 nM	105% and 85.9%
HCC1143 [4], 1000 nM	96.1% and 91.6%
HCC1937 [9], 100 nM	106% and 100%
HCC1937 [9], 1000 nM	82.3% and 82.8%
Hs578T [1], 1 nM	126% and 102%
Hs578T [1], 100 nM	109% and 123%
Hs578T [1], 1000 nM	101% and 87.8%
MDA-MB-231 [5], 1 nM	103% and 90.2%
MDA-MB-231 [5], 100 nM	88.7% and 96.2%
MDA-MB-231 [5], 1000 nM	84.8% and 63.9%
MDA-MB-436 [6], 1 nM	92.8% and 87%
MDA-MB-436 [6], 100 nM	103% and 80.7%
MDA-MB-436 [6], 1000 nM	91% and 88.2%
MDA-MB-468 [7], 1 nM	115% and 93.2%
MDA-MB-468 [7], 1000 nM	102% and 112%
MFM-223 [3], 1 nM	94.9% and 108%
MFM-223 [3], 100 nM	96.7% and 103%
MFM-223 [3], 1000 nM	48.2% and 67.9%

Conditions	normalised viability
BT-474	109% and 85.3%
BT-549	119% and 96%
CAL-51 [11]	111% and 95.4%
CAL-85-1	104% and 103%
CAL-120	97.8% and 95.4%
CAL-148	112% and 109%
DU-4475 [16]	96.9% and 115%
HCC1143 [13]	109% and 96%
HCC1599	106% and 123%
HCC1937 [17]	101% and 85.2%
Hs578T [10]	113% and 99%
MDA-MB-231 [14]	92.8% and 93.4%
MDA-MB-436 [15]	88% and 95.8%
MDA-MB-453	109% and 102%
MFM-223 [12]	102% and 105%
SK-BR-3	103% and 90.7%

CCN(CC)CCNC(=O)c1c(C)[nH]c(/C=C2\C(=O)Nc3ccc(F)cc32)c1C [Sunitinib]
Conditions	normalised viability
CAL-51 [2], 0.3 nM	116% and 93.3%
CAL-51 [2], 10 nM	107% and 91.1%
DU-4475 [8], 0.3 nM	99.7% and 88.2%
DU-4475 [8], 3 nM	92.5% and 88.1%
DU-4475 [8], 10 nM	108% and 95.7%
HCC1143 [4], 100 nM	84.3% and 106%
HCC1937 [9], 1 nM	93.7% and 84.2%
HCC1937 [9], 100 nM	82.3% and 102%
HCC1937 [9], 1000 nM	84.5% and 93.2%
Hs578T [1], 1 nM	106% and 100%
Hs578T [1], 100 nM	103% and 113%
Hs578T [1], 1000 nM	108% and 107%
MDA-MB-231 [5], 1 nM	90.4% and 86.8%
MDA-MB-231 [5], 100 nM	89% and 90.3%
MDA-MB-231 [5], 1000 nM	114% and 112%
MDA-MB-436 [6], 1 nM	94.5% and 114%
MDA-MB-436 [6], 100 nM	85.8% and 110%
MDA-MB-436 [6], 1000 nM	98.5% and 108%
MDA-MB-468 [7], 1 nM	104% and 89.3%
MDA-MB-468 [7], 100 nM	104% and 95.4%
MDA-MB-468 [7], 1000 nM	100%
MFM-223 [3], 1 nM	101% and 105%
MFM-223 [3], 100 nM	91.4% and 96.6%
MFM-223 [3], 1000 nM	62.7% and 68.1%

Conditions	normalised viability
BT-474	81% and 89.3%
BT-549	87.1% and 85%
CAL-51 [11]	111% and 96%
CAL-85-1	89.3% and 104%
CAL-148	104% and 107%
DU-4475 [16]	101% and 89.2%
HCC1599	112% and 101%
HCC1937 [17]	91.7% and 88.2%
HDQ-P1	100% and 93.2%
Hs578T [10]	104% and 115%
MDA-MB-231 [14]	82.2% and 85.6%
MDA-MB-436 [15]	98.4% and 105%
MDA-MB-453	99.7% and 100%
MDA-MB-468 [18]	94.7% and 98.5%
MFM-223 [12]	99.6% and 109%
SK-BR-3	94.2% and 93.7%
